Assay results taken from patent publication US9101638B2, “Boronic acid derivatives and therapeutic uses thereof” (Rempex Pharmaceuticals, Inc., priority 2013, dated 2015).
Like-named read-outs stand apart in the source and are kept apart here.

Experiments:
ec308 (SHV-5) [1] = test: Potentiation of aztreonam, strain ec308; assay type: cell-based; settings: for AZT MPC4 SHV-5 ec308: minimum BLI concentration inhibiting growth with 4 μg/mL aztreonam
ec302 (TEM-10) [2] = test: Potentiation of tigemonam, strain ec302; assay type: cell-based
SHV-12 = SHV-12 (Klebsiella pneumoniae, UniProt P0AD64, E235K/G234S/L31Q); test: Inhibition of nitrocefin cleavage by purified SHV-12; assay type: biochemical; settings: nitrocefin reporter substrate, purified enzyme; read-out: Ki (SHV-12, NCF)
SHV-12, sequence (P0AD64 22-286 L31Q/G234S/E235K): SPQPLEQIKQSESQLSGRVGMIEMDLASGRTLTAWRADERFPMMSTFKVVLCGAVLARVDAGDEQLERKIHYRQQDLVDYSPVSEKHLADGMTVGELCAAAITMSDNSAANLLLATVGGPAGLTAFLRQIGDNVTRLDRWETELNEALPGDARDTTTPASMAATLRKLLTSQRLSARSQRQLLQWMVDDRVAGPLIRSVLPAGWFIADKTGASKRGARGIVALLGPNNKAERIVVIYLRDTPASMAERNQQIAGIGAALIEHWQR
Procedure: (§1) Purified enzymes were mixed with various concentrations of inhibitors in reaction buffer and incubated for 10 min at room temperature. Nitrocefin was added and substrate cleavage profiles were recorded at 490 nm every 10 sec for 10 min.

ECL1002 = test: Potentiation of aztreonam, strain ECL1002; assay type: cell-based; settings: minimum BLI concentration inhibiting growth with 4 μg/mL aztreonam
KP1004 (K-2) = test: Potentiation of aztreonam, strain KP1004; assay type: cell-based; settings: for AZT MPC4 K-2 KP1004: minimum BLI concentration inhibiting growth with 4 μg/mL aztreonam
ec308 (SHV-5) [3] = test: Potentiation of tigemonam, strain ec308; assay type: cell-based; settings: minimum BLI concentration inhibiting growth with 4 μg/mL tigemonam
KP1009 (CTX-M-15) [4] = test: Potentiation of tigemonam, strain KP1009; settings: minimum BLI concentration inhibiting growth with 4 μg/mL tigemonam
PAM1154/KPC-2 = test: Biapenem potentiation in PAM1154/KPC-2 (MexAB-OprM lacking); assay type: cell-based, Pseudomonas aeruginosa
Procedure: (§2) Efflux of BLIs from Pseudomonas aeruginosa by the MexAB-OprM efflux pump was also evaluated. […] Due to expression of KPC-2 both strains became resistant to biapenem. […] Potency of BLIs to potentiate biapenem in these strains was determined. […] The ratio of MPC64 values for each BLI in PAM1032/KPC-2 (efflux proficient) and PAM1154/KPC-2 (efflux deficient) was determined to generate the Efflux Index (EI).

EC1010 (CMY-6) [5] = assay type: cell-based
KP1005 (CTX-M-14) = test: Potentiation of aztreonam, strain KP1005; assay type: cell-based
ec302 (TEM-10) [6] = test: Potentiation of aztreonam, strain ec302; assay type: cell-based
EC1010 (CMY-6) [7] = test: Potentiation of aztreonam, strain EC1010; assay type: cell-based
PAM1032/KPC-2 = test: Biapenem potentiation in PAM1032/KPC-2 (MexAB-OprM overexpressed); assay type: cell-based, Pseudomonas aeruginosa; settings: BLI potency to decrease biapenem MIC 64-fold, 32 to 0.5 μg/ml; efflux proficient strain
Procedure: as §2

KP1009 (CTX-M-15) [8] = test: Potentiation of aztreonam, strain KP1009; assay type: cell-based
KPC-2 = KPC-2 (Klebsiella pneumoniae, UniProt Q9F663); test: Inhibition of nitrocefin cleavage by purified KPC-2; assay type: biochemical; settings: nitrocefin reporter substrate, purified enzyme; read-out: Ki (KPC-2, NCF)
KPC-2, sequence (Q9F663 25-293, looked up, species assumed): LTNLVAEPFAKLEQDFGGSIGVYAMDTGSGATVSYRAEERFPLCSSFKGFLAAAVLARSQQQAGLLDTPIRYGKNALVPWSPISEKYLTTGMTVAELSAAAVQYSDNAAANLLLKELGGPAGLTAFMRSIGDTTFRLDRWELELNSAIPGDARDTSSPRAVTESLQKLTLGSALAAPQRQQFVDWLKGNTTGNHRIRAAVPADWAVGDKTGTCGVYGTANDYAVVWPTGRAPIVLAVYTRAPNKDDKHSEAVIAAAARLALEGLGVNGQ
Procedure: as §1

[9] = minimum BLI concentration inhibiting growth with 4 μg/mL aztreonam

| Structure (SMILES) | AZT MPC4 SHV-5 ec308 (ec308 (SHV-5) [1]) | TIG MPC4 TEM-10 ec302 (ec302 (TEM-10) [2]) | Ki (SHV-12) | AZT MPC4 ECL1002 (ECL1002) | AZT MPC4 K-2 KP1004 (KP1004 (K-2)) | TIG MPC4 SHV-5 ec308 (ec308 (SHV-5) [3]) | TIG MPC4 CTX-M-15 KP1009 (KP1009 (CTX-M-15) [4]) | PAM1032/KPC-2 Biapenem MPC64 (PAM1032/KPC-2) | TIG MPC4 CMY-6 EC1010 (EC1010 (CMY-6) [5]) | AZT MPC4 CTX-M-14 KP1005 (KP1005 (CTX-M-14)) | AZT MPC4 TEM-10 ec302 (ec302 (TEM-10) [6]) | AZT MPC4 CTX-M-15 KP1009 (KP1009 (CTX-M-15) [8]) | also measured |
| --- | --- | --- | --- | --- | --- | --- | --- | --- | --- | --- | --- | --- | --- |
| O=C(CSC(F)(F)F)N[C@H]1Cc2cccc(C(=O)O)c2OB1O [Compound 1, (R)-2-hydroxy-3-(2-(trifluoromethylthio)acetamido)-3,4-dihydro-2H-benzo[e][1,2]oxaborinine-8-carboxylic acid] | X (X = MIC of less than 1 μg/mL) | Z (key: X = MIC of less than 1 μg/mL; Y = MIC of 1 μg/mL to 10 μg/mL; Z = MIC of greater than 10 μg/mL) | < 1 nM | Y (Y = MIC of 1 μg/mL to 10 μg/mL) | Y (Y = MIC of 1 μg/mL to 10 μg/mL) | X (X = MIC of less than 1 μg/mL) | Y (Y = MIC of 1 μg/mL to 10 μg/mL) | Z (Z Greater than 40) | – | – | – | – | PAM1154/KPC-2 Biapenem MPC64 (PAM1154/KPC-2): X (key: X = Less than 10; Y = 10 to 40; Z Greater than 40); TIG MPC4 CMY-6 EC1010 (EC1010 (CMY-6) [5]; minimum BLI concentration inhibiting growth with 4 μg/mL tigemonam): X (X = MIC of less than 1 μg/mL); AZT MPC4 CTX-M-14 KP1005 (KP1005 (CTX-M-14); [9]): Y (Y = MIC of 1 μg/mL to 10 μg/mL); AZT MPC4 TEM-10 ec302 (ec302 (TEM-10) [6]; [9]): Y (Y = MIC of 1 μg/mL to 10 μg/mL); AZT MPC4 CMY-6 EC1010 (EC1010 (CMY-6) [7]; [9]): Y (Y = MIC of 1 μg/mL to 10 μg/mL); AZT MPC4 CTX-M-15 KP1009 (KP1009 (CTX-M-15) [8]; [9]): Y (Y = MIC of 1 μg/mL to 10 μg/mL) |
| Nc1nnc(C(=O)N[C@H]2Cc3cccc(C(=O)O)c3OB2O)s1 [Compound 19, (R)-3-(5-amino-1,3,4-thiadiazole-2-carboxamido)-2-hydroxy-3,4-dihydro-2H-benzo[e][1,2]oxaborinine-8-carboxylic acid] | X (X = MIC of less than 1 μg/mL) | – | < 1 nM | Y (Y = MIC of 1 μg/mL to 10 μg/mL) | Y (Y = MIC of 1 μg/mL to 10 μg/mL) | X (X = MIC of less than 1 μg/mL) | Y (Y = MIC of 1 μg/mL to 10 μg/mL) | – | X (key: X = MIC of less than 1 μg/mL; Y = MIC of 1 μg/mL to 10 μg/mL; Z = MIC of greater than 10 μg/mL) | Y (key: X = MIC of less than 1 μg/mL; Y = MIC of 1 μg/mL to 10 μg/mL; Z = MIC of greater than 10 μg/mL) | Y (key: X = MIC of less than 1 μg/mL; Y = MIC of 1 μg/mL to 10 μg/mL; Z = MIC of greater than 10 μg/mL) | Y (key: X = MIC of less than 1 μg/mL; Y = MIC of 1 μg/mL to 10 μg/mL; Z = MIC of greater than 10 μg/mL) | Ki (KPC-2): > 10 nM |
| C[C@H]1[C@H](NC(=O)/C(=N\OC(C)(C)C(=O)O)c2csc(N)n2)C(=O)N1S(=O)(=O)O [Aztreonam, reference compound] | – | – | – | – | – | – | – | – | – | – | – | – | MIC (ec308 (SHV-5) [1]; read-out: Aztreonam MIC): > 128 µg/mL; MIC (KP1004 (K-2); read-out: Aztreonam MIC): > 128 µg/mL; MIC (KP1005 (CTX-M-14); read-out: Aztreonam MIC): > 128 µg/mL; MIC (ec302 (TEM-10) [6]; read-out: Aztreonam MIC): 128 µg/mL; MIC (EC1010 (CMY-6) [7]; read-out: Aztreonam MIC): > 128 µg/mL; MIC (KP1009 (CTX-M-15) [8]; read-out: Aztreonam MIC): > 128 µg/mL |
| Cn1nnnc1SCC(=O)N[C@H]1Cc2cccc(C(=O)O)c2OB1O [Compound 2, (R)-2-hydroxy-3-(2-(1-methyl-1H-tetrazol-5-ylthio)acetamido)-3,4-dihydro-2H-benzo[e][1,2]oxaborinine-8-carboxylic acid] | X (X = MIC of less than 1 μg/mL) | Y (key: X = MIC of less than 1 μg/mL; Y = MIC of 1 μg/mL to 10 μg/mL; Z = MIC of greater than 10 μg/mL) | < 1 nM | Y (Y = MIC of 1 μg/mL to 10 μg/mL) | Y (Y = MIC of 1 μg/mL to 10 μg/mL) | X (X = MIC of less than 1 μg/mL) | Y (Y = MIC of 1 μg/mL to 10 μg/mL) | Z (Z Greater than 40) | X (key: X = MIC of less than 1 μg/mL; Y = MIC of 1 μg/mL to 10 μg/mL; Z = MIC of greater than 10 μg/mL) | X (key: X = MIC of less than 1 μg/mL; Y = MIC of 1 μg/mL to 10 μg/mL; Z = MIC of greater than 10 μg/mL) | Y (key: X = MIC of less than 1 μg/mL; Y = MIC of 1 μg/mL to 10 μg/mL; Z = MIC of greater than 10 μg/mL) | Y (key: X = MIC of less than 1 μg/mL; Y = MIC of 1 μg/mL to 10 μg/mL; Z = MIC of greater than 10 μg/mL) | PAM11154/KPC-2 Biapenem MPC64 (PAM1154/KPC-2; BLI potency to decrease biapenem MIC 64-fold, 32 to 0.5 μg/ml, efflux deficient strain): Y (Y = 10 to 40); AZT MPC4 CMY-6 EC1010 (EC1010 (CMY-6) [7]): Y (key: X = MIC of less than 1 μg/mL; Y = MIC of 1 μg/mL to 10 μg/mL; Z = MIC of greater than 10 μg/mL) |
